In test [1] the target is T1, Phytoene desaturase (OsPDS-His6) (Oryza sativa, UniProt A2XDA1, R300S).
T1 construct: gene PDS1
Put plainly: liposome-based desaturase assay with purified mutant, DPQ x NFZ matrix, competitive inhibition fit. It is filed as biochemical.

Test [2] concerns the target T2, Phytoene desaturase (OsPDS-His6) (Oryza sativa, UniProt A2XDA1).
T2 construct: gene PDS1
Put plainly: liposome-based desaturase assay with purified enzyme, competitive inhibition fit against DPQ, HPLC. The format is biochemical.

T1 sequence (A2XDA1 88-578 R300S): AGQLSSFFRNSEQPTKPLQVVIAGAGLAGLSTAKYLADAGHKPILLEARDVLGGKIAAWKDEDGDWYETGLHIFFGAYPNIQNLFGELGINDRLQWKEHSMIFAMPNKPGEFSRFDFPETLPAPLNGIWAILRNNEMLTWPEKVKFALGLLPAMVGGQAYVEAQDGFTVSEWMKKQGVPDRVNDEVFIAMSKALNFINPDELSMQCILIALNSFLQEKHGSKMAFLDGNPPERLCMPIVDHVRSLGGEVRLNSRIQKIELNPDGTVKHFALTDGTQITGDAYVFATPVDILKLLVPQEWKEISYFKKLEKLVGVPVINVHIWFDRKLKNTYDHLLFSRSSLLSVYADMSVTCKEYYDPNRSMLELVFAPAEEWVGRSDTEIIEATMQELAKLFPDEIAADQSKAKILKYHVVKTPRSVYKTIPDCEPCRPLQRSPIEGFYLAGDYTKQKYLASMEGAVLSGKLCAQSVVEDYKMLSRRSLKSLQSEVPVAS
T2 sequence (A2XDA1 88-578): as the sequence (A2XDA1 88-578 R300S) above, with S213R counted along it

In general, Ki refers to a dissociation constant, usually derived from enzyme kinetics or from competition with a known ligand. A higher Ki goes with weaker binding. As to `CNc1cnn(-c2cccc(C(F)(F)F)c2)c(=O)c1Cl` [NFZ, norflurazon], the Ki in test [1] was determined as 1110 ± 360 µM; in test [2], 230 ± 30 µM.

(Values after PMC5703498, “Plant-type phytoene desaturase: Functional evaluation of structural implications” (PLoS ONE, 2017).)
